Reference: ChEMBL document CHEMBL1126894 (J Med Chem, 1993)
Counter-ions that a name gives are not always drawn.

Columns and labels:
[1] = molecular target: T1, 5-hydroxytryptamine receptor 1A (Rattus norvegicus, UniProt P19327); experiment: Binding affinity by measuring displacement of [3H]-8-OH-DPAT from 5-hydroxytryptamine 1A receptor in rat hippocampus; type: tissue-based
T1 sequence (P19327 whole entry): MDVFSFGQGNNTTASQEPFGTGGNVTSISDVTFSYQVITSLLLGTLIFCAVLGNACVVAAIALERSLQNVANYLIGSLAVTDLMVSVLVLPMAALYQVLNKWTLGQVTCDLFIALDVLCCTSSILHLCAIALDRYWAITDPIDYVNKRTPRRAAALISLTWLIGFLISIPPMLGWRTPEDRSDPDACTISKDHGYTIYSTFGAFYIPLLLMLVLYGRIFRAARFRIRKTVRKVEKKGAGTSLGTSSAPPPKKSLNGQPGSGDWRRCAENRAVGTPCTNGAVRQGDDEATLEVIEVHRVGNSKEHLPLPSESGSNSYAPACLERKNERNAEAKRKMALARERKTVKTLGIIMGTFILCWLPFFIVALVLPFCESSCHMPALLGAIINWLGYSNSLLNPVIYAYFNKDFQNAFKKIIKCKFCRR

Mus musculus [2] = experiment: Ability to reverse scopolamine-induced amnesia in a passive avoidance test to assess memory impairment administered perorally 10 mg/kg; type: functional; settings: route oral
Mus musculus [3] = experiment: Ability to reverse scopolamine-induced amnesia in a passive avoidance test to assess memory impairment administered perorally 3 mg/kg; type: functional; settings: route oral
Mus musculus [4] = experiment: Ability to reverse scopolamine-induced amnesia in a passive avoidance test to assess memory impairment administered perorally 30 mg/kg; type: functional; settings: route oral
Rattus norvegicus [5] = experiment: Anticonflict activity on water lick conflict test in rats by measuring no. of shocks in 5 min. administered perorally at 30 mg/kg; type: functional; settings: route oral
Rattus norvegicus [6] = experiment: Anticonflict activity on water lick conflict test in rats is no of shocks in 5 min. administered perorally 1 mg/kg (no. of rats); type: functional; settings: route oral
Rattus norvegicus [7] = experiment: Anticonflict activity on water lick conflict test in rats by measuring no. of shocks in 5 min. administered perorally at 3 mg/kg; type: functional; settings: route oral
[8] = molecular target: T1, 5-hydroxytryptamine receptor 1A; experiment: Inhibitory concentration against 5-hydroxytryptamine 1A receptor
[9] = molecular target: T1, 5-hydroxytryptamine receptor 1A; experiment: Binding affinity for 5-hydroxytryptamine 1A receptor by use of [3H]8-OH-DPAT in male rat
Mus musculus [10] = experiment: Ability to reverse scopolamine-induced amnesia in a passive avoidance test to assess memory impairment administered perorally 1 mg/kg; type: functional; settings: route oral
Mus musculus [11] = experiment: Ability to reverse scopolamine-induced amnesia in a passive avoidance test to assess memory impairment administered perorally at 30 mg/kg; type: functional; settings: route oral
Rattus norvegicus [12] = experiment: Anticonflict activity on water lick conflict test in rats by measuring no. of shocks in 5 min. administered perorally at 1 mg/kg; type: functional; settings: route oral
Rattus norvegicus [13] = experiment: Anticonflict activity on water lick conflict test in rats by measuring no. of shocks in 5 min. administered perorally at 10 mg/kg; type: functional; settings: route oral
Rattus norvegicus [14] = experiment: Anticonflict activity on water lick conflict test in rats is no. of shocks in 5 min; administered perorally 10 mg/kg (no. of rats); type: functional; settings: route oral
Mus musculus [15] = experiment: Ability to reverse scopolamine-induced amnesia in a passive avoidance test to assess memory impairment; administered perorally 5 mg/kg (no. of mice); type: functional; settings: route oral
Mus musculus [16] = experiment: Ability to reverse scopolamine-induced amnesia in a passive avoidance test to assess memory impairment administered perorally 1 mg/kg (no. of mice); type: functional; settings: route oral
D(2) dopamine receptor = D(2) dopamine receptor (Homo sapiens, UniProt P14416); experiment: Binding affinity for DA2 receptor
D(2) dopamine receptor, sequence (P14416 whole entry): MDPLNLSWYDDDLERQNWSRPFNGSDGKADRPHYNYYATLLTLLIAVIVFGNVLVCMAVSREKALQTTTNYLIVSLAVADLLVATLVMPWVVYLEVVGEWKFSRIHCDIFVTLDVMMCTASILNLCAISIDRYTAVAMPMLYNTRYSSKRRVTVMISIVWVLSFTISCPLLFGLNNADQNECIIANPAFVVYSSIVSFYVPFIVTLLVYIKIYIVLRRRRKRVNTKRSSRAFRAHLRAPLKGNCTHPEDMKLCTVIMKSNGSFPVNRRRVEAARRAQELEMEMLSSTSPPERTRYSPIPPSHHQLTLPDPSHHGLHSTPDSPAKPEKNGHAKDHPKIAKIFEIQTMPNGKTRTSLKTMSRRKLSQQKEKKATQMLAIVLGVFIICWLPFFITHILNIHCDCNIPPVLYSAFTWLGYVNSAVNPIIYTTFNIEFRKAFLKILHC

Structure (SMILES): O=C(OC1CCCCCC1)[C@H]1Cc2c(sc3ccccc23)CN1
- IC50 [1]: 55.2 nM

Structure (SMILES): O=C(NC1CCCC1)[C@H]1Cc2c(sc3ccccc23)CN1
- IC50 [1]: 111 nM

Structure (SMILES): O=C(NC1CCCCC1)[C@H]1Cc2c(sc3ccccc23)CN1
- IC50 [1]: 27.2 nM

Structure (SMILES): CCC(CC)NC(=O)[C@H]1Cc2c(sc3ccccc23)CN1
- IC50 [1]: 126 nM

Structure (SMILES): Cl.O=C(NC1CCCCC1O)[C@H]1Cc2c(sc3ccccc23)CN1 (stereo partly drawn)
- IC50 [1]: 148 nM
- Latency to step through (Mus musculus [2]): 41.6 s
- Latency to step through (Mus musculus [3]): 68.2 s
- Latency to step through (Mus musculus [4]): 50.8 s
- No. of shocks (Rattus norvegicus [5]): 26.1
- No. of shocks (Rattus norvegicus [6]): 21.6
- No. of shocks (Rattus norvegicus [7]): 34.9

Structure (SMILES): CCCCCCNC(=O)[C@H]1Cc2c(sc3ccccc23)CN1
- IC50 [1]: 91.2 nM

Structure (SMILES): O=C(NCC1CCCCC1)[C@H]1Cc2c(sc3ccccc23)CN1
- IC50 [1]: 20.2 nM

Structure (SMILES): O=C(OC1CCCCC1)[C@H]1Cc2c(sc3ccccc23)CN1
- IC50 [1]: 50.4 nM

Structure (SMILES): O=C(Nc1ccccc1)[C@H]1Cc2c(sc3ccccc23)CN1
- IC50 [1]: 272 nM

Structure (SMILES): O=C(NC1CCCCCC1)[C@H]1Cc2c(sc3ccccc23)CN1
- IC50 [1]: 28.4 nM

Structure (SMILES): CCCCCCCNC(=O)[C@H]1Cc2c(sc3ccccc23)CN1
- IC50 [8]: 126 nM

Structure (SMILES): O=C(NC1CCC1)[C@H]1Cc2c(sc3ccccc23)CN1
- IC50 [1]: 232 nM

Structure (SMILES): Cl.O=C(NCc1ccc2c(c1)OCO2)[C@H]1Cc2c(sc3ccccc23)CN1
- IC50 [1]: 53.1 nM
- Ki [9]: 53.1 nM
- Latency to step through (Mus musculus [10]): 94.6 s
- Latency to step through (Mus musculus [3]): 89 s
- Latency to step through (Mus musculus [11]): 104.7 s
- No. of shocks (Rattus norvegicus [12]): 22.1
- No. of shocks (Rattus norvegicus [13]): 28.3
- No. of shocks (Rattus norvegicus [7]): 22.9

Structure (SMILES): O=C(NC1CCCCCCC1)[C@H]1Cc2c(sc3ccccc23)CN1
- IC50 [1]: 22.9 nM

Structure (SMILES): O=C(NC12CC3CC(CC(C3)C1)C2)[C@H]1Cc2c(sc3ccccc23)CN1
- IC50 [1]: 61.6 nM

Structure (SMILES): CC(C)(C)C1CCC(NC(=O)[C@H]2Cc3c(sc4ccccc34)CN2)CC1 (stereo partly drawn)
- IC50 [1]: 52.7 nM

Structure (SMILES): CC1CCC(NC(=O)[C@H]2Cc3c(sc4ccccc34)CN2)CC1 (stereo partly drawn)
- IC50 [1]: 32.4 nM

Structure (SMILES): CC1CCCCC1NC(=O)[C@H]1Cc2c(sc3ccccc23)CN1 (stereo partly drawn)
- IC50 [1]: 28 nM

Structure (SMILES): O=C(OC1CCCC1)[C@H]1Cc2c(sc3ccccc23)CN1
- IC50 [1]: 121 nM

Structure (SMILES): Cc1ccc(CNC(=O)[C@H]2Cc3c(sc4ccccc34)CN2)cc1
- IC50 [1]: 133 nM

Structure (SMILES): C[C@H](NC(=O)[C@H]1Cc2c(sc3ccccc23)CN1)c1ccccc1
- IC50 [1]: 58.4 nM

Structure (SMILES): O=C(NN1CCCCC1)[C@H]1Cc2c(sc3ccccc23)CN1
- IC50 [1]: 211 nM

Structure (SMILES): O=C(OC1CCCCCCC1)[C@H]1Cc2c(sc3ccccc23)CN1
- IC50 [1]: 67.3 nM

Structure (SMILES): O=C(NC1CCCCC1)[C@@H]1Cc2c(sc3ccccc23)CN1
- IC50 [1]: > 5000 nM

Structure (SMILES): O=C(NC1CC2CCC1C2)[C@H]1Cc2c(sc3ccccc23)CN1 (stereo partly drawn)
- IC50 [1]: 66.4 nM

Structure (SMILES): O=C(NCc1ccc2c(c1)OCO2)C1Cc2c(sc3ccccc23)CN1 (single isomer, unassigned)
- IC50 [1]: > 5000 nM

Structure (SMILES): CN1C(=O)CN=C(c2ccccc2)c2cc(Cl)ccc21 [DIAZEPAM]
- No. of shocks (Rattus norvegicus [14]): 25.6
- Latency to step through (Mus musculus [15]): 10.6 s

Structure (SMILES): CN1[C@@H]2C[C@@H](OC(=O)[C@H](CO)c3ccccc3)C[C@H]1[C@@H]1O[C@@H]12 [SCOPOLAMINE]
- Latency to step through (Mus musculus [16]): 16 s

Structure (SMILES): O=C1[C@@H]2[C@H]3CC[C@H](C3)[C@@H]2C(=O)N1CCCCN1CCN(c2ncccn2)CC1 [TANDOSPIRONE HYDROCHLORIDE]
- Ki (D(2) dopamine receptor): 28 nM
